Our source for the EC50 values is US10730863B2, “Bridged bicyclic compounds as farnesoid X receptor modulators” (BRISTOL-MYERS SQUIBB COMPANY, priority 2017, dated 2020).

The EC50 is the concentration at which the effect is half-maximal. A low value points to an effect from little substance.

Each structure is given as a SMILES string.

The target of this assay is FXR (Homo sapiens (Human), UniProt Q96RI1). Briefly: FXR EC50 (FXR agonist activity reported with each example). It is filed as cell-based.
Chain of FXR (Q96RI1 262-486): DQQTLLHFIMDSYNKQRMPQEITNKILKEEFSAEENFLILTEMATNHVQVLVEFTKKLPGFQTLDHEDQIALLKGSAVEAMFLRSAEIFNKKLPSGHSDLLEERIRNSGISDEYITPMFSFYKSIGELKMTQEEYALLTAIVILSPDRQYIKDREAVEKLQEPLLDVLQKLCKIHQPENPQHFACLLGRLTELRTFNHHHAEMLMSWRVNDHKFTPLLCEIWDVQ
With `O=C(O)c1ccc2nc(C34CCC(/C=C\c5c(-c6c(Cl)cccc6Cl)noc5C5CC5)(CC3)CC4)sc2c1` [Example 181, (Z)-2-(4-(2-(5-cyclopropyl-3-(2,6-dichlorophenyl)isoxazol-4-yl)vinyl)bicyclo[2.2.2]octan-1-yl)benzo[d]thiazole-6-carboxylic acid], a half-maximal response (EC50) required 780 nM.
The result for `O=C(O)c1ccc2nc(C34CCC(/C=C/c5c(-c6ccccc6OC(F)(F)F)noc5C5CC5)(CC3)CC4)sc2c1` [Example 182, (E)-2-(4-(2-(5-cyclopropyl-3-(2-(trifluoromethoxy)phenyl)isoxazol-4-yl)vinyl)bicyclo[2.2.2]octan-1-yl)benzo[d]thiazole-6-carboxylic acid] reads 100 nM; that for `O=C(O)c1cccc2nc(C34CCC(C=Cc5c(-c6ccccc6OC(F)(F)F)noc5C5CC5)(CC3)CC4)sc12` [Example 183], 13 nM.
As to `O=C(O)c1cccc2nc(C34CCC(C=Cc5c(-c6c(Cl)cccc6Cl)noc5C5CC5)(CC3)CC4)sc12` [Example 184], the midpoint of the response, the EC50, lay at 20 nM.
`O=C(O)c1cccc(NC(=O)C23CCC(C=Cc4c(-c5c(Cl)cccc5Cl)noc4C4CC4)(CC2)CC3)c1Cl` [Example 185] registered an EC50 of 1400 nM.
The result for `O=C(O)c1cccc2nc(C34CCC(C=Cc5c(-c6ccccc6OC(F)(F)F)noc5C5CC5)(CC3)CC4)sc12` [Example 186] reads 67 nM; that for `COC(=O)c1cccc(NC(=O)C23CCC(C=Cc4c(-c5c(Cl)cccc5Cl)noc4C4CC4)(CC2)CC3)c1` [Example 187], 3000 nM.
The result for `O=C(O)c1cccc(NC(=O)C23CCC(C=Cc4c(-c5c(Cl)cccc5Cl)noc4C4CC4)(CC2)CC3)c1` [Example 188] reads 120 nM.
The result for `O=C(O)c1cccc2nc(C34CCC(C=Cc5c(-c6c(Cl)cccc6Cl)noc5C5CC5)(CC3)CC4)sc12` [Example 189] reads 63 nM.
The molecule `O=C(O)c1cccc(NC(=O)C23CCC(C=Cc4c(-c5c(Cl)cccc5Cl)noc4C4CC4)(CC2)CC3)c1` [Example 190] showed an EC50 of 3500 nM.
`O=C(O)c1cc(F)c2nc(OCC34CCC(C=Cc5c(-c6c(Cl)cccc6Cl)noc5C5CC5)(CC3)CC4)sc2c1` [Example 191] yielded an EC50 of 58 nM.
The result for `O=C(O)c1ccc2nc(OCC34CCC(C=Cc5c(-c6c(Cl)cccc6Cl)noc5C5CC5)(CC3)CC4)sc2c1` [Example 192] reads 7.2 nM; that for `O=C(O)c1cccc(-c2noc(C34CCC(OCc5c(-c6c(Cl)cccc6Cl)noc5C5CC5)(CC3)CO4)n2)c1` [Example 193, 3-(5-(4-((5-cyclopropyl-3-(2,6-dichlorophenyl)isoxazol-4-yl)methoxy)-2-oxabicyclo[2.2.2]octan-1-yl)-1,2,4-oxadiazol-3-yl)benzoic acid], 26 nM.
The result for `O=C(O)c1ccc(C23CCC(/C=C/c4c(-c5c(Cl)cccc5Cl)noc4C4CC4)(CC2)CO3)cc1` [Example 194, (E)-4-(4-(2-(5-cyclopropyl-3-(2,6-dichlorophenyl)isoxazol-4-yl)vinyl)-2-oxabicyclo[2.2.2]octan-1-yl)benzoic acid] reads 34 nM; that for `O=C(O)c1cccc(C23CCC(COCc4c(-c5c(Cl)cccc5Cl)noc4C4CC4)(CC2)CO3)c1` [Example 195, 3-(4-(((5-cyclopropyl-3-(2,6-dichlorophenyl)isoxazol-4-yl)methoxy)methyl)-2-oxabicyclo[2.2.2]octan-1-yl)benzoic acid], 47 nM.
As to `O=C(O)c1ccc(-c2noc(C34CCC(OCc5c(-c6c(Cl)cccc6Cl)noc5C5CC5)(CC3)CO4)n2)cc1` [Example 196], a half-maximal response (EC50) required 83 nM.
The molecule `O=C(O)c1cccc(/C=C/C23CCC(COCc4c(-c5ccccc5OC(F)(F)F)noc4C4CC4)(CC2)CO3)c1` [Example 197, (E)-3-(2-(4-(((5-cyclopropyl-3-(2-(trifluoromethoxy)phenyl)isoxazol-4-yl)methoxy)methyl)-2-oxabicyclo[2.2.2]octan-1-yl)vinyl)benzoic acid] registered a concentration giving a half-maximal response (EC50) of 90 nM.
The result for `O=C(O)c1cc(-c2noc(C34CCC(OCc5c(-c6c(Cl)cccc6Cl)noc5C5CC5)(CC3)CO4)n2)ccc1F` [Example 198] reads 98 nM.
The result for `O=C(O)c1cccc(-c2noc(C34CCC(OCc5c(-c6ccccc6OC(F)(F)F)noc5C5CC5)(CC3)CO4)n2)c1` [Example 199] reads 220 nM; that for `O=C(O)c1cccc(/C=C/C23CCC(COCc4c(-c5c(Cl)cccc5Cl)noc4C4CC4)(CC2)CO3)c1` [Example 200], 220 nM; that for `O=C(O)c1ccc(C23CCC(COCc4c(-c5c(Cl)cccc5Cl)noc4C4CC4)(CC2)CO3)cc1` [Example 201], 270 nM.
The result for `O=C(O)c1cc(C23CCC(COCc4c(-c5c(Cl)cccc5Cl)noc4C4CC4)(CC2)CO3)ccc1F` [Example 202] reads 390 nM.
Take `O=C(O)c1ccc(C23CCC(CNc4c(-c5c(Cl)cccc5Cl)noc4C4CC4)(CC2)CO3)cc1` [Example 203, 4-(4-(((5-cyclopropyl-3-(2,6-dichlorophenyl)isoxazol-4-yl)amino)methyl)-2-oxabicyclo[2.2.2]octan-1-yl)benzoic acid]: the EC50 was determined as 420 nM.
The result for `O=C(O)c1cccc(C23CCC(COCc4c(-c5ccccc5OC(F)(F)F)noc4C4CC4)(CC2)CO3)c1` [Example 204] reads 440 nM; that for `O=C(O)c1ccc(C23CCC(COCc4c(-c5ccccc5OC(F)(F)F)noc4C4CC4)(CC2)CO3)cc1` [Example 205], 450 nM; that for `O=C(O)c1cccc(-c2noc(C34CCC(OCc5c(-c6c(Cl)cncc6Cl)noc5C5CC5)(CC3)CO4)n2)c1` [Example 206], 490 nM.
The result for `O=C(O)c1cc(C23CCC(COCc4c(-c5ccccc5OC(F)(F)F)noc4C4CC4)(CC2)CO3)ccc1F` [Example 207] reads 570 nM.
The result for `NC(=O)c1ccc(C23CCC(CNc4c(-c5c(Cl)cccc5Cl)noc4C4CC4)(CC2)CO3)cc1` [Example 208, 4-(4-(((5-cyclopropyl-3-(2,6-dichlorophenyl)isoxazol-4-yl)amino)methyl)-2-oxabicyclo[2.2.2]octan-1-yl)benzamide] reads 710 nM.
`O=C(O)c1ccc(-c2noc(C34CCC(COCc5c(-c6ccccc6OC(F)(F)F)noc5C5CC5)(CC3)CO4)n2)cc1` [Example 209, 4-(5-(4-(((5-cyclopropyl-3-(2-(trifluoromethoxy)phenyl)isoxazol-4-yl)methoxy)methyl)-2-oxabicyclo[2.2.2]octan-1-yl)-1,2,4-oxadiazol-3-yl)benzoic acid] showed an EC50 of 470 nM.
`O=C(O)c1cccc(-c2noc(C34CCC(COCc5c(-c6c(Cl)cccc6Cl)noc5C5CC5)(CC3)CO4)n2)c1` [Example 210, 3-(5-(4-(((5-cyclopropyl-3-(2,6-dichlorophenyl)isoxazol-4-yl)methoxy)methyl)-2-oxabicyclo[2.2.2]octan-1-yl)-1,2,4-oxadiazol-3-yl)benzoic acid] displayed an EC50 of 960 nM.
The result for `O=C(O)c1ccc(-c2noc(C34CCC(COCc5c(-c6c(Cl)cccc6Cl)noc5C5CC5)(CC3)CO4)n2)cc1` [Example 211] reads 980 nM; that for `O=C(O)c1ccc(-c2noc(C34CCC(OCc5c(-c6ccccc6OC(F)(F)F)noc5C5CC5)(CC3)CO4)n2)cc1` [Example 212], 1000 nM.
The result for `O=C(O)c1cccc(-c2noc(C34CCC(COCc5c(-c6ccccc6OC(F)(F)F)noc5C5CC5)(CC3)CO4)n2)c1` [Example 213] reads 1200 nM.
The result for `O=C(O)c1csc(C23CCC(COCc4c(-c5ccccc5OC(F)(F)F)noc4C4CC4)(CC2)CO3)n1` [Example 214] reads 1400 nM; that for `CS(=O)(=O)NC(=O)c1cccc(C23CCC(COCc4c(-c5c(Cl)cccc5Cl)noc4C4CC4)(CC2)CO3)c1` [Example 215], 1600 nM; that for `O=C(O)c1csc(C23CCC(COCc4c(-c5c(Cl)cccc5Cl)noc4C4CC4)(CC2)CO3)n1` [Example 216], 2000 nM.
For `O=C(O)c1ccc(-c2noc(C34CCC(OCc5c(-c6c(Cl)cncc6Cl)noc5C5CC5)(CC3)CO4)n2)cc1` [Example 218], the EC50 was found to be 160 nM.
Turning to `O=C(O)c1cc(F)cc(-c2noc(C34CCC(OCc5c(-c6c(Cl)cccc6Cl)noc5C5CC5)(CC3)CO4)n2)c1` [Example 219, 3-(5-(4-((5-cyclopropyl-3-(2,6-dichlorophenyl)isoxazol-4-yl)methoxy)-2-oxabicyclo[2.2.2]octan-1-yl)-1,2,4-oxadiazol-3-yl)-5-fluorobenzoic acid], a half-maximal effect (EC50) was put at 300 nM.
The result for `Clc1cccc(Cl)c1-c1noc(C2CC2)c1COCC12CCC(c3cccc(-c4nnn[nH]4)c3)(CC1)OC2` [Example 220, 4-(((1-(3-(1H-tetrazol-5-yl)phenyl)-2-oxabicyclo[2.2.2]octan-4-yl)methoxy)methyl)-5-cyclopropyl-3-(2,6-dichlorophenyl)isoxazole] reads 870 nM; that for `O=C(O)c1cccc(-c2noc(C34CCC(OCc5c(-c6c(Cl)cccc6Cl)noc5C5CC5)(CC3)C4)n2)c1` [Example 221, 3-(5-((1r,4r)-4-((5-cyclopropyl-3-(2,6-dichlorophenyl)isoxazol-4-yl)methoxy)bicyclo[2.2.1]heptan-1-yl)-1,2,4-oxadiazol-3-yl)benzoic acid], 300 nM; that for `O=C(O)c1ccc(-c2noc(C34CCC(C=Cc5c(-c6c(Cl)cccc6Cl)noc5C5CC5)(CC3)C4)n2)cc1` [Example 226, 4-(5-(4-(2-(5-cyclopropyl-3-(2,6-dichlorophenyl)isoxazol-4-yl)vinyl)bicyclo[2.2.1]heptan-1-yl)-1,2,4-oxadiazol-3-yl)benzoic acid], 420 nM.
The result for `COC(=O)c1cccc(NC(=O)C23CCC(C=Cc4c(-c5c(Cl)cccc5Cl)noc4C4CC4)(CC2)C3)c1` [Example 229] reads 3600 nM; that for `O=C(O)c1cccc(NC(=O)C23CCC(C=Cc4c(-c5c(Cl)cccc5Cl)noc4C4CC4)(CC2)C3)c1` [Example 230], 890 nM.
The result for `O=C(O)c1cc(F)c2nc(C34CCC(OCc5c(-c6c(Cl)cncc6Cl)noc5C5CC5)(CC3)CC4)sc2c1` [Example 231, 2-(4-((5-cyclopropyl-3-(3,5-dichloropyridin-4-yl)isoxazol-4-yl)methoxy)bicyclo[2.2.2]octan-1-yl)-4-fluorobenzo[d]thiazole-6-carboxylic acid] reads 53 nM.
